Results on six compounds are retold here after ChEMBL document CHEMBL3868587, “Heptaketides from an Endolichenic Fungus Biatriospora sp. and Their Antifungal Activity” (2016).

Assay [1] concerns Candida albicans. The assay can be described thus: Antifungal activity against Candida albicans SC5314 by CLSI broth microdilution method. It counts as functional.
Assay [2] has as its system Candida albicans. In words: Inhibition of CDR1/CDR2 in Candida albicans clinical isolate 145 assessed as potentiation of fluconazole-induced antifungal activity up to 8 ug/ml after 24 hrs by broth microdilution checkerboard assay. A general note: Broth dilution looks for growth in wells or tubes with falling amounts of substance.
The subject of assay [3] is Candida albicans. The assay can be described thus: Antifungal activity against Candida albicans clinical isolate 142 after 24 hrs in presence of fluconazole by XTT based broth microdilution assay. To be noted: isolate 142, 24 h. It is filed as functional.
Assay [4] can be described thus: Antifungal activity against fluconazole-resistant Candida albicans clinical isolate 142 by CLSI broth microdilution method. It counts as functional.
Assay [5] can be described thus: Reduction in CDR2 mRNA expression in fluconazole-resistant Candida albicans clinical isolate 24D at 1 ug/ml measured after 12 hrs by qPCR method relative to control. It is filed as functional. In general terms: In qPCR the cycle at which signal appears reflects the starting amount.
The subject of assay [6] is Candida albicans. The assay can be described thus: Antifungal activity against Candida albicans clinical isolate 145 after 24 hrs in presence of fluconazole by XTT based broth microdilution assay. It counts as functional. To be noted: isolate 145, 24 h. Background: Tetrazolium assays rely on reduction of a dye to a coloured formazan, in cell work by metabolically active cells.

Assay [7] has as its system Candida albicans. In words: Inhibition of CDR1/CDR2 in Candida albicans clinical isolate 24D assessed as potentiation of fluconazole-induced antifungal activity up to 8 ug/ml after 24 hrs by broth microdilution checkerboard assay.
Assay [8] in a line: Antifungal activity against fluconazole-resistant Candida albicans clinical isolate 145 by CLSI broth microdilution method. It is filed as functional.
The nature of assay [9]: Upregulation of CDR2 mRNA expression in fluconazole-resistant Candida albicans clinical isolate 24D at 2 ug/ml measured after 12 hrs by qPCR method relative to control. It is filed as functional.
In assay [10] the test system is Candida albicans. The assay can be described thus: Inhibition of CDR1/CDR2 in Candida albicans clinical isolate 18I assessed as potentiation of fluconazole-induced antifungal activity up to 8 ug/ml after 24 hrs by broth microdilution checkerboard assay.
Assay [11] is described as follows: Antifungal activity against fluconazole-resistant Candida albicans clinical isolate 18I by CLSI broth microdilution method. It is filed as functional.
Assay [12] relates to Candida albicans. The assay can be described thus: Inhibition of Candida albicans clinical isolate 24D CDR1/CDR2 assessed as inhibtion of glucose-induced rhodamine-123 efflux at 1 ug/ml measured after 30 mins by confocal microscopic analysis.
Assay [13] has as its system Candida albicans. In words: Inhibition of CDR1/CDR2 in Candida albicans clinical isolate 142 assessed as potentiation of fluconazole-induced antifungal activity up to 8 ug/ml after 24 hrs by broth microdilution checkerboard assay.
Assay [14] deals with Candida albicans. The assay can be described thus: Inhibition of Candida albicans clinical isolate 24D CDR1/CDR2 assessed as inhibtion of glucose-induced rhodamine-123 efflux at 1 ug/ml measured after 30 mins by flow cytometry.
Assay [15] concerns Candida albicans. In words: Inhibition of CDR1/CDR2 in Candida albicans clinical isolate 144 assessed as potentiation of fluconazole-induced antifungal activity up to 8 ug/ml after 24 hrs by broth microdilution checkerboard assay.
Assay [16] can be described thus: Antifungal activity against fluconazole-resistant Candida albicans clinical isolate 147 by CLSI broth microdilution method. It is filed as functional.
Assay [17] is described as follows: Upregulation of CDR1 mRNA expression in fluconazole-resistant Candida albicans clinical isolate 24D at 2 ug/ml measured after 12 hrs by qPCR method relative to control. It is filed as functional.
The subject of assay [18] is Candida albicans. In words: Inhibition of CDR1/CDR2 in Candida albicans clinical isolate 142 assessed as potentiation of fluconazole-induced antifungal activity measured as reduction in fluconazole MIC80 up to 8 ug/ml after 24 hrs by XTT based broth microdilution assay relative to fluconazole.
Assay [19] can be described thus: Antifungal activity against Candida albicans clinical isolate 147 after 24 hrs in presence of fluconazole by XTT based broth microdilution assay. It counts as functional.
Assay [20] concerns Candida albicans. In words: Antifungal activity against Candida albicans clinical isolate 144 after 24 hrs in presence of fluconazole by XTT based broth microdilution assay. It counts as functional. Conditions: isolate 144, 24 h.
A short description of assay [21]: Antifungal activity against Candida albicans clinical isolate 24D after 24 hrs in presence of fluconazole by XTT based broth microdilution assay. It is filed as functional.
Assay [22] is described as follows: Antifungal activity against Candida albicans clinical isolate 18I after 24 hrs in presence of fluconazole by XTT based broth microdilution assay. It is filed as functional.
Assay [23] has as its system Candida albicans. The assay can be described thus: Inhibition of CDR1/CDR2 in Candida albicans clinical isolate 147 assessed as potentiation of fluconazole-induced antifungal activity up to 8 ug/ml after 24 hrs by broth microdilution checkerboard assay.
A short description of assay [24]: Antifungal activity against fluconazole-resistant Candida albicans clinical isolate 24D by CLSI broth microdilution method. It is filed as functional.
Assay [25] in a line: Antifungal activity against fluconazole-resistant Candida albicans clinical isolate 144 by CLSI broth microdilution method. It is filed as functional.
Assay [26] can be described thus: Reduction in CDR1 mRNA expression in fluconazole-resistant Candida albicans clinical isolate 24D at 1 ug/ml measured after 12 hrs by qPCR method relative to control. It counts as functional.
The test system of assay [27] is Candida albicans. In words: Inhibition of CDR1/CDR2 in Candida albicans clinical isolate 142 assessed as potentiation of fluconazole-induced antifungal activity by measuring fluconazole MIC80 up to 8 ug/ml after 24 hrs by XTT based broth microdilution assay (reference value: >128 ug/ml).
The subject of assay [28] is Candida albicans. The assay can be described thus: Inhibition of CDR1/CDR2 in Candida albicans clinical isolate 18I assessed as potentiation of fluconazole-induced antifungal activity by measuring fluconazole MIC80 up to 8 ug/ml after 24 hrs by XTT based broth microdilution assay (reference value: >128 ug/ml).
For assay [29], the system named is Candida albicans. In words: Inhibition of CDR1/CDR2 in Candida albicans clinical isolate 145 assessed as potentiation of fluconazole-induced antifungal activity by measuring fluconazole MIC80 up to 8 ug/ml after 24 hrs by XTT based broth microdilution assay (reference value: >128 ug/ml).
The test system of assay [30] is Candida albicans. In words: Inhibition of CDR1/CDR2 in Candida albicans clinical isolate 144 assessed as potentiation of fluconazole-induced antifungal activity by measuring fluconazole MIC80 up to 8 ug/ml after 24 hrs by XTT based broth microdilution assay (reference value: >128 ug/ml).
In assay [31] the test system is Candida albicans. In words: Inhibition of CDR1/CDR2 in Candida albicans clinical isolate 24D assessed as potentiation of fluconazole-induced antifungal activity by measuring fluconazole MIC80 up to 8 ug/ml after 24 hrs by XTT based broth microdilution assay (reference value: >128 ug/ml).
Assay [32] has as its system Candida albicans. The assay can be described thus: Inhibition of CDR1/CDR2 in Candida albicans clinical isolate 147 assessed as potentiation of fluconazole-induced antifungal activity by measuring fluconazole MIC80 up to 8 ug/ml after 24 hrs by XTT based broth microdilution assay (reference value: >128 ug/ml).

SMILES strings stand for the structures. In brackets after ≈: the same amount, converted by molar mass. Activity calls are given as the source filed them. No cut-off for these calls is given here.

Turning to `COc1cc(O)c2c(c1)C(=O)C1=C(C2=O)[C@H](OC)O[C@@H](C)C1`, the MIC80 in the assay on Candida albicans [1] came out at 64 µg/mL (≈ 210 µM).
`COc1cc(O)c2c(c1)-c1oc(C)cc1C(=O)C2=O`: the fractional inhibitory concentration index (FICI) in the assay with Candida albicans [2] came to 0.04; with Candida albicans [7] it was 0.03; with Candida albicans [10] it was 0.02; in the assay on Candida albicans [13], 0.01; with Candida albicans [15] it was 0.02; in the assay on Candida albicans [23], 0.02. Moreover, the MIC80 was 0.125 µg/mL with Candida albicans [3]; 16 µg/mL (≈ 62 µM) in [4]; 0.125 µg/mL with Candida albicans [6]; 16 µg/mL (≈ 62 µM) in the assay on Candida albicans [1]; 16 µg/mL (≈ 62 µM) in [8]; 16 µg/mL (≈ 62 µM) in assay [11]. Moreover, the MIC80 came out at 16 µg/mL (≈ 62 µM) in assay [16]; 0.125 µg/mL in assay [19]; 0.125 µg/mL in the assay with Candida albicans [20]; 0.25 µg/mL in assay [21]; 0.25 µg/mL in [22]; 16 µg/mL (≈ 62 µM) in assay [24]. The MIC80 in assay [25] came to 16 µg/mL (≈ 62 µM). Further, the fold change (FC) was 0.5 in assay [5]; 3.6 in [9]; 2 in [17]; above 256 in the assay with Candida albicans [18]; 0.4 in [26]. The inhibition result in the assay with Candida albicans [12] and with Candida albicans [14] was “Active” in each case.
`OC(Cn1cncn1)(Cn1cncn1)c1ccc(F)cc1F` [FLUCONAZOLE]: the MIC80 with Candida albicans [27] was 0.5 µg/mL; in assay [4] it was above 128 µg/mL; against Candida albicans [1], 2 µg/mL (≈ 6.53 µM); in assay [8], above 128 µg/mL; in [11] it was above 128 µg/mL; with Candida albicans [28], 1 µg/mL. Moreover, the MIC80 in the assay with Candida albicans [29] was 4 µg/mL; with Candida albicans [30] it was 2 µg/mL; in the assay on Candida albicans [31] it was 2 µg/mL; in [16], above 128 µg/mL; in assay [24], above 128 µg/mL; in the assay with Candida albicans [32], 2 µg/mL. Further, in assay [25], the MIC80 is above 128 µg/mL.
`CC1=CC2=C(CO1)C(=O)c1c(O)cc(O)cc1C2=O` showed an MIC80 in the assay with Candida albicans [1] of 32 µg/mL (≈ 124 µM).
Consider `CN(C/C=C/C#CC(C)(C)C)Cc1cccc2ccccc12` [TERBINAFINE], for which the MIC80 against Candida albicans [1] was found to be 16 µg/mL (≈ 54.9 µM).
On to `COc1cc(O)c2c(c1)C(=O)C(CC(C)=O)=C(C)C2=O`, for which the MIC80 in the assay with Candida albicans [1] was 64 µg/mL (≈ 233 µM).
